Measurements taken from patent publication US10183063B2, “Injection composition comprising hyaluronidase for removal of topical fat” (priority 2016, dated 2019).

Experiments:
[1] = system: topical fat; type: in vivo, human
From the text: In order to find the optimal doses of hyaluronidase facilitating lipolysis, the present inventor conducted experiments with hyaluronidase unit doses of 10 IU, 50 IU, 100 IU, 150 IU, 200 IU, 250 IU, 300 IU, 350 IU, 400 IU, 450 IU, 500 IU, 550 IU, 600 IU, 650 IU, 700 IU, 750 IU, 800 IU, 850 IU, 900 IU, 950 IU, 1000 IU, 1050 IU, 1100 IU, 1150 IU, 1200 IU, 1250 IU, 1300 IU, 1350 IU, 1400 IU, 1450 IU, and 1500 IU.
It was shown in clinical trials that at the above dose range, if the injection composition is administered in a volume of 1 cc containing 300 IU of hyaluronidase, the diameter of the diffusion range is about 1 cm. Thus, with the hyaluronidase dose set at 300 IU to 600 IU, by injecting the composition at a volume of 0.5 to 2 cc depending on the hyaluronidase dose and at injection points with an interval of 0.5 to 1.5 cm between the injection points, injection at narrow intervals is possible and consequently, lipolysis occurs evenly. Furthermore, a lifting effect occurs concomitantly where skin resilience is improved by the promotion of collagen production through stimulation of the skin by the injection needle.
Thus, by administering an injection composition of the present invention having the above compositional ranges, the side effects from using the drugs are minimized and fat removal over a wide area can be carried out using a minimal volume.
It was shown in clinical trials that at a hyaluronidase of 300 IU, the diameter of the diffusion range for the injection composition is about 1 cm. Thus, by injecting the composition at narrow intervals between injection points of 0.5 to 2 cm, even fat removal as well as collagen production by skin stimulation can be facilitated.

Compound	time until the onset of action for the local anesthetic effect, later compared to lidocaine	Lipolysis ([1]; unit dose 300 IU or below)	Fat removal ([1]; unit dose above 600 IU)	Fat removal effect and side effects ([1]; unit dose of 300 IU to 600 IU)	minimum amount of hyaluronidase exhibiting efficacy ([1]; unit dose per injection) [IU]
CCN(CC)CCOC(=O)c1ccc(N)cc1 [procaine]	more than 10 minutes	–	–	–	–
hyaluronidase	–	sufficient lipolysis did not occur	excellent effects were obtained in terms of fat removal	possible to ensure the fat removal effect while minimizing side effects	300
